Data from ChEMBL document CHEMBL1155424, “3D-QSAR and docking studies on transforming growth factor (TGF)-beta receptor 1 antagonists” (Bioorg Med Chem Lett, 2010).

Key:
[1] = molecular target: T1, TGF-beta receptor type-1 (Homo sapiens) (UniProt P36897)
T1 sequence (whole entry): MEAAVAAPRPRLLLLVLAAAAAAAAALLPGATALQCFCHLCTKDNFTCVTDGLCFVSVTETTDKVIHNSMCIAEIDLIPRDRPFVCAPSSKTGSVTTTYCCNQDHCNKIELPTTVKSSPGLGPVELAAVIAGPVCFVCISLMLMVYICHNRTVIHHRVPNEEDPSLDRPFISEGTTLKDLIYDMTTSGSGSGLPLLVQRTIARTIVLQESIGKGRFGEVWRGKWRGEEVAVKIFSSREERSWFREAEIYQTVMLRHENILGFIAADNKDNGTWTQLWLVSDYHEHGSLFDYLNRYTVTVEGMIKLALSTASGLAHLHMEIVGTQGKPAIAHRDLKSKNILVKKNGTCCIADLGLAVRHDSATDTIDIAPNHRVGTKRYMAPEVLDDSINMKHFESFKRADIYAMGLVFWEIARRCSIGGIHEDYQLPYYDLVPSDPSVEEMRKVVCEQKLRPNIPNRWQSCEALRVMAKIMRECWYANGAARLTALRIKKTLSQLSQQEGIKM
Description: Antagonistic activity at TGFBR1

[2] = molecular target: T2, TGF-beta receptor type-1 (Homo sapiens, UniProt P36897)
T2 sequence (P36897 whole entry): T1 sequence (whole entry)
Description: Antagonistic activity at TGFBR1

| Compound | logIC50 [1] | other results |
| --- | --- | --- |
| Cc1cccc(-c2[nH]c(NCc3ccc(C#N)cc3)nc2-c2ccc3c(c2)OCO3)n1 | -0.815 |  |
| CCc1cccc(-c2[nH]c(CNc3ccc(C#N)cc3)nc2-c2ccc3nccnc3c2)n1 |  | logKi [1]: -1.32 |
| Cc1cccc(-c2[nH]c(C(C)(C)C)nc2-c2ccc3c(c2)OCO3)n1 | -1.33 |  |
| CCc1cccc(-c2[nH]c(CNc3cccc(C(N)=O)c3)nc2-c2ccc3nccnc3c2)n1 | -1.82 |  |
| O=C(O)c1ccc(-c2nc(-c3ccc4c(c3)OCO4)c(-c3ccccn3)[nH]2)cc1 | -0.77 |  |
| Cc1cccc(-c2[nH]c(CNc3ccc(C(N)=O)cc3)nc2-c2ccc3nccnc3c2)n1 | -1.12 |  |
| OCc1ccc(-c2nc(-c3ccccn3)c(-c3ccc4c(c3)OCO4)[nH]2)cc1 |  | logKi [1]: -0.585 |
| N#Cc1ccc(-c2nc(-c3ccc4c(c3)OCO4)c(-c3ccccn3)[nH]2)cc1 | 0.47 |  |
| Cc1cccc(-c2[nH]c(CNc3ccc(C#N)cc3)nc2-c2ccc3nccnc3c2)n1 | -1.38 |  |
| Cc1cccc(-c2[nH]c(CNc3cccc(C(N)=O)c3)nc2-c2ccc3nccnc3c2)n1 |  | logKi [1]: -2 |
| Cc1cccc(-c2[nH]c(CNc3cccc(C#N)c3)nc2-c2ccc3nccnc3c2)n1 | -1.92 |  |
| Cc1cccc(-c2[nH]c(CNc3ccc(C(N)=O)cc3)nc2-c2ccc3c(c2)OCO3)n1 | -0.582 |  |
| CCc1cccc(-c2[nH]c(CNc3cccc(C#N)c3)nc2-c2ccc3nccnc3c2)n1 | -0.924 |  |
| Cc1cccc(-c2[nH]c(CNc3ccc(C#N)cc3)nc2-c2ccc3c(c2)OCO3)n1 | -0.759 | IC50 [2]: 171 nM |

Second part, led by results:

| logIC50 [1] | Compound | other results |
| --- | --- | --- |
| -0.415 | CCc1cccc(-c2[nH]c(CNc3ccc(C(N)=O)cc3)nc2-c2ccc3c(c2)OCO3)n1 |  |
| -1.34 | Cc1cccc(-c2[nH]c(CNc3cccc(C#N)c3)nc2-c2ccc3c(c2)OCO3)n1 |  |
| -1.62 | Cc1cccc(-c2[nH]c(NCc3cccc(C#N)c3)nc2-c2ccc3c(c2)OCO3)n1 |  |
| -1.14 | CCc1cccc(-c2[nH]c(CNc3cccc(C#N)c3)nc2-c2ccc3c(c2)OCO3)n1 |  |
| -1.68 | Cc1cccc(-c2[nH]c(CNc3cccc(C(N)=O)c3)nc2-c2ccc3c(c2)OCO3)n1 |  |
| -1.34 | CCc1cccc(-c2[nH]c(CNc3cccc(C(N)=O)c3)nc2-c2ccc3c(c2)OCO3)n1 |  |
| -0.443 | CCc1cccc(-c2[nH]c(CNc3ccc(C#N)cc3)nc2-c2ccc3c(c2)OCO3)n1 |  |
